Experimental findings from ChEMBL document CHEMBL1201862, “PubChem BioAssay data set” (2004) are described below.

Among the test systems are MCF7; TK-10; CCRF-CEM; SNB-19; A549; PC-3; NCI-H23; KM12; MOLT-4; K562; HCT-15; HCT-116; SW-620; MDA-N; EKVX; SK-MEL-28; MDA-MB-435; U-251; COLO 205.
Common to all, as to test: DTP human tumour cell line panel, 48 h

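Test compounds were applied to cells in 96-well plates for 48 hours at 5 doses. GI50 is the concentration that inhibits growth by half.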 The source made the active and inactive calls. Rule as the data show it: active = GI50 up to about 1.1 µM and inactive = higher. Where only a bound is given, the exact number is not on record here.

By GI50 is commonly meant the concentration at which growth is held to half of that of the control. With `CCCCn1c2c(n(CCCC)c1=S)-c1c(n(CCCC)c(=S)n1CCCC)SSSS2`, the GI50 is 2.68 µM (inactive) in the assay on MCF7; 1.22 µM (inactive) in the assay on TK-10; 0.0957 µM (active) in the assay on CCRF-CEM; 3.86 µM (inactive) with SNB-19; 26.7 µM (inactive) with A549; 0.414 µM (active) in the assay with PC-3. Besides, the GI50 was 3.31 µM (inactive) in the assay with NCI-H23; 8.93 µM (inactive) in the assay with KM12; 0.454 µM (active) in the assay with MOLT-4; 0.371 µM (active) with K562; 0.557 µM with HCT-15; 2.24 µM (inactive) in the assay with HCT-116. In addition, the 50% growth inhibitory concentration (GI50) with SW-620 was 0.348 µM (active); in the assay with MDA-N, 2.84 µM (inactive); with EKVX, 1.31 µM (inactive); in the assay on SK-MEL-28, 9.02 µM (inactive); in the assay with MDA-MB-435, 2.41 µM (inactive); in the assay with U-251, 1.99 µM (inactive). Also, in the assay with COLO 205, the GI50 is 0.432 µM (active).
As to `COc1ccc(C=O)cc1Oc1ccc(C[C@H]2c3c(cc(OC)c4c3Oc3cc5c(cc3O4)CCN(C)C5=O)CCN2C)cc1`, the GI50 in the assay on MCF7 is 7.66 µM (inactive); with TK-10 it was 11.2 µM (inactive); in the assay on CCRF-CEM, 10 µM (inactive); with SNB-19 it was 12 µM (inactive); in the assay with A549 it was 36.2 µM (inactive); in the assay on PC-3 it was 8.75 µM (inactive). Further, the GI50 is 7.14 µM (inactive) in the assay on NCI-H23; 8.91 µM (inactive) with KM12; 9.95 µM (inactive) in the assay with MOLT-4; 6.05 µM (inactive) in the assay with K562; 10.1 µM in the assay on HCT-15; 7.05 µM (inactive) with HCT-116. In addition, the GI50 in the assay on SW-620 was 12.1 µM (inactive); with MDA-N, 8.67 µM (inactive); in the assay with EKVX it was 9.4 µM (inactive); in the assay with SK-MEL-28 it was 10.6 µM (inactive); in the assay with MDA-MB-435 it was 9.73 µM (inactive); in the assay with U-251 it was 9.51 µM (inactive). Moreover, the GI50 in the assay with COLO 205 was 20.8 µM (inactive).
`N#CC1(C#N)[C@@H]2CCC=C(Sc3ccccc3)[C@@H]21`: the GI50 with MCF7 is 10.4 µM (inactive); in the assay on TK-10 it was 14.6 µM (inactive); with CCRF-CEM, 5.71 µM (inactive); in the assay with SNB-19 it was 23.9 µM (inactive); with A549, 23.4 µM (inactive); in the assay with PC-3, 14.3 µM (inactive). Besides, the GI50 in the assay on KM12 is 14.9 µM (inactive); with MOLT-4, 14.5 µM (inactive); with K562, 6.71 µM (inactive); with HCT-15 it was 17.7 µM; in the assay on HCT-116, 15.7 µM (inactive); in the assay with SW-620, 11.9 µM (inactive). The GI50 with MDA-N is 13.9 µM (inactive); in the assay with EKVX, 18.5 µM (inactive); with SK-MEL-28, 15 µM (inactive); in the assay on MDA-MB-435, 12.9 µM (inactive); in the assay with U-251, 16.1 µM (inactive); in the assay on COLO 205, 17.3 µM (inactive).
On to `C(=C\c1cccc(/C=C/c2ccccn2)n1)/c1ccccn1`, for which the GI50 with MCF7 is 26.6 µM (inactive); in the assay on TK-10, > 100 µM (inactive); in the assay on CCRF-CEM, 37 µM (inactive); in the assay on SNB-19, > 100 µM (inactive); in the assay with A549 it was > 100 µM (inactive); in the assay with PC-3 it was 58.9 µM (inactive). The GI50 in the assay with NCI-H23 is 66.5 µM (inactive); in the assay on KM12, 46.8 µM (inactive); in the assay with MOLT-4 it was 31.5 µM (inactive); in the assay on K562 it was 47.8 µM (inactive); in the assay on HCT-15 it was over 100 µM; in the assay on HCT-116, 68.9 µM (inactive). Further, the GI50 in the assay with SW-620 was 59.4 µM (inactive); in the assay with MDA-N, 68.2 µM (inactive); in the assay with EKVX it was > 100 µM (inactive); in the assay with SK-MEL-28 it was 81.3 µM (inactive); with MDA-MB-435, 83.8 µM (inactive); with U-251, > 100 µM (inactive). Moreover, the GI50 in the assay with COLO 205 was 39.8 µM (inactive).
On to `Cc1nc2c(Cl)cc(Cl)cc2c(Cl)c1CCCl`, for which the GI50 with MCF7 is > 100 µM (inactive); with TK-10, 32.4 µM (inactive); in the assay with CCRF-CEM, 62.8 µM (inactive); with SNB-19, 56.4 µM (inactive); with A549, 78.7 µM (inactive); in the assay with PC-3, 60.5 µM (inactive). Further, the GI50 was > 100 µM (inactive) with NCI-H23; > 100 µM (inactive) in the assay with KM12; 55 µM (inactive) in the assay on MOLT-4; 80.5 µM (inactive) in the assay on K562; 60.5 µM in the assay with HCT-15; 76 µM (inactive) in the assay on HCT-116. Besides, the GI50 in the assay on SW-620 was > 100 µM (inactive); with MDA-N, > 100 µM (inactive); with EKVX it was 78.2 µM (inactive); in the assay with SK-MEL-28, > 100 µM (inactive); in the assay on MDA-MB-435 it was 74.6 µM (inactive); in the assay with U-251, > 100 µM (inactive). Besides, the GI50 in the assay with COLO 205 is > 100 µM (inactive).
As to `c1ccc2sc(SSSc3nc4ccccc4s3)nc2c1`, the GI50 was 44.1 µM (inactive) in the assay on MCF7; > 100 µM (inactive) in the assay with TK-10; 28.4 µM (inactive) with CCRF-CEM; > 100 µM (inactive) with SNB-19; > 100 µM (inactive) with A549; > 100 µM (inactive) in the assay with PC-3. For the same compound, the GI50 with NCI-H23 was > 100 µM (inactive); in the assay on KM12, > 100 µM (inactive); in the assay on MOLT-4, 77.3 µM (inactive); with K562, > 100 µM (inactive); in the assay with HCT-15, 27.7 µM; with HCT-116, > 100 µM (inactive). Besides, the GI50 in the assay with SW-620, with MDA-N, in the assay with EKVX, in the assay on SK-MEL-28, in the assay on MDA-MB-435 and in the assay on U-251 was > 100 µM (inactive) throughout. Further, in the assay with COLO 205, the GI50 was > 100 µM (inactive).
`CN(C)CCNC(=O)c1cc([N+](=O)[O-])ccn1`: the GI50 in the assay on MCF7 was 16.6 µM (inactive); with TK-10, > 100 µM (inactive); in the assay on CCRF-CEM it was 31.6 µM (inactive); with SNB-19 it was 33.6 µM (inactive); in the assay with A549, 30.8 µM (inactive); in the assay on PC-3, 23.1 µM (inactive). The GI50 with NCI-H23 was 20.9 µM (inactive); in the assay on KM12, 32.8 µM (inactive); in the assay on MOLT-4, 23.1 µM (inactive); in the assay on K562, 21.5 µM (inactive); with HCT-15 it was 18.1 µM; with HCT-116, 24.8 µM (inactive). Also, the GI50 in the assay with SW-620 was 27 µM (inactive); in the assay on MDA-N, 16.7 µM (inactive); with EKVX, > 100 µM (inactive); with SK-MEL-28, > 100 µM (inactive); in the assay on MDA-MB-435 it was 19 µM (inactive); in the assay with U-251, 31 µM (inactive). Moreover, the GI50 in the assay on COLO 205 was 13.4 µM (inactive).
In the case of `CC(=O)Oc1ccc2ccc(=O)oc2c1OC(C)=O`, the GI50 in the assay with MCF7 was 46.3 µM (inactive); in the assay with TK-10, 78.2 µM (inactive); in the assay on CCRF-CEM, 10.6 µM (inactive); in the assay with SNB-19 it was 32.6 µM (inactive); with A549, 30.1 µM (inactive); in the assay with PC-3 it was 43 µM (inactive). The GI50 is 32 µM (inactive) in the assay with NCI-H23; 44.4 µM (inactive) in the assay with KM12; 33.3 µM (inactive) in the assay with MOLT-4; 41.9 µM (inactive) with K562; 11.6 µM in the assay with HCT-15; 36.3 µM (inactive) with HCT-116. Further, the GI50 with SW-620 was 37.1 µM (inactive); with MDA-N, 49.8 µM (inactive); in the assay on EKVX, 67.8 µM (inactive); in the assay with SK-MEL-28, > 100 µM (inactive); with MDA-MB-435 it was 39.1 µM (inactive); in the assay with U-251 it was 50.2 µM (inactive). For the same compound, the GI50 in the assay on COLO 205 is 24.4 µM (inactive).
On to `O=C1OC(c2ccco2)=N/C1=C\c1cccc([N+](=O)[O-])c1`, for which the GI50 in the assay with MCF7, in the assay on TK-10, in the assay on CCRF-CEM, in the assay on SNB-19, in the assay on A549 and in the assay on PC-3 was > 100 µM (inactive) each time. Moreover, the GI50 in the assay on NCI-H23 is > 100 µM (inactive); in the assay with KM12 it was > 100 µM (inactive); in the assay with MOLT-4, > 100 µM (inactive); with K562, > 100 µM (inactive); in the assay with HCT-15, over 100 µM; in the assay on HCT-116 it was > 100 µM (inactive). The GI50 in the assay on SW-620, in the assay on MDA-N, in the assay with EKVX, in the assay on SK-MEL-28, in the assay with MDA-MB-435 and with U-251 was > 100 µM (inactive) each time. Further, the GI50 in the assay with COLO 205 is > 100 µM (inactive).
In the case of `CC(C)(C)c1cc(C(C)(C)C)c(SC2OC(CO)C(O)C(O)C2O)c(O)c1O` (stereo not drawn), the GI50 in the assay with MCF7 is 5.4 µM (inactive); with TK-10, 12.1 µM (inactive); in the assay on CCRF-CEM, 5.27 µM (inactive); in the assay on SNB-19, 8.02 µM (inactive); with A549, 3.84 µM (inactive); with PC-3, 9.18 µM (inactive). The GI50 in the assay with NCI-H23 was 4.42 µM (inactive); in the assay on KM12, 6.87 µM (inactive); with MOLT-4, 9.1 µM (inactive); in the assay with K562, 2.93 µM (inactive); with HCT-15, 4.54 µM; in the assay on HCT-116, 13.1 µM (inactive). For the same compound, the GI50 in the assay on SW-620 is 19.3 µM (inactive); in the assay on MDA-N, 4.12 µM (inactive); with EKVX, 10.8 µM (inactive); with SK-MEL-28 it was 15.6 µM (inactive); in the assay on MDA-MB-435, 4.94 µM (inactive); in the assay with U-251, 7.43 µM (inactive). For the same compound, the GI50 in the assay with COLO 205 was 8.45 µM (inactive).
Consider `O=c1c(Cc2cccc(Cc3c(O)oc4ccccc4c3=O)c2)c(O)oc2ccccc12`, for which the GI50 with MCF7 is 62.4 µM (inactive); in the assay on TK-10, > 100 µM (inactive); with CCRF-CEM it was > 100 µM (inactive); in the assay with SNB-19, > 100 µM (inactive); with A549, > 100 µM (inactive); in the assay on PC-3 it was > 100 µM (inactive). Also, the GI50 in the assay on NCI-H23 was > 100 µM (inactive); with KM12, > 100 µM (inactive); with MOLT-4 it was > 100 µM (inactive); with K562 it was > 100 µM (inactive); in the assay with HCT-15, over 100 µM; in the assay on HCT-116, > 100 µM (inactive). Further, the GI50 with SW-620, in the assay on MDA-N, with EKVX, in the assay on SK-MEL-28, with MDA-MB-435 and with U-251 was > 100 µM (inactive) throughout. In addition, the GI50 with COLO 205 was > 100 µM (inactive).
